Source: publication PMC10839966, “Identification and evaluation of small-molecule inhibitors against the dNTPase SAMHD1 via a comprehensive screening funnel” (iScience, 2024)
pKi: −log10 of the molar value. Entries after “also recorded” stand apart in the source; their conditions may differ. Where two headings read alike, the source gives them in different places.

Legend:
[1] = system: T1, cellular SAMHD1 in intact THP-1 cells; test: CETSA using intact THP-1 cells; assay type: cell-based, Human; settings: 100 μM inhibitors or 10 mM thymidine, 2 h; isothermal at 53°C for inhibitors
T1 construct: lysate from THP-1 cells expressing endogenous wild-type SAMHD1; endogenous in cells; host or cells: THP-1

recombinant SAMHD1 [2] = target: T2, recombinant SAMHD1 (Homo sapiens, UniProt Q9Y3Z3); test: Kinetic study, enzyme-coupled MG assay with matrix of inhibitors and dGTP; assay type: biochemical; settings: inhibitor 0.03-20 μM added before dGTP 6.25-200 μM
T2 construct: His-tag (N); made in house; host or cells: E. coli BL21 (DE3)

recombinant SAMHD1 [3] = target: T2, recombinant SAMHD1; test: Enzyme-coupled malachite green assay, SAMHD1 in vitro activity (dGTP, ara-CTP, Cl-F-ara-ATP substrates); assay type: biochemical
recombinant SAMHD1 [4] = target: T2, recombinant SAMHD1; test: B4NPP direct SAMHD1 enzymatic assay; assay type: biochemical; settings: for Inhibition of SAMHD1 activity against B4NPP (in words): 2 mM B4NPP
recombinant SAMHD1 [5] = target: T2, recombinant SAMHD1; test: Differential scanning fluorometry (DSF); assay type: binding; settings: for Effect on SAMHD1 thermal stability / Tm1: absence of nucleotides, up to 200 μM (0.2–[…]); for Effect on GTP-induced SAMHD1 dimerization (Tm1 transition): order-of-addition, 0.1 mM TH6342, 0.5 mM TH7127 pre-incubated before low GTP, TH7126 before or after GTP
[6] = system: T3, cellular SAMHD1 in THP-1 cell lysate; test: Drug affinity responsive target stability (DARTS) on THP-1 cell lysates; assay type: binding, Human; settings: 100 μM compound or 5 mM dGTP
T3 construct: lysate from THP-1 cells expressing endogenous wild-type SAMHD1; endogenous in cells; host or cells: THP-1

[7] = system: T4, wild-type SAMHD1 in THP-1 cell lysates; test: CETSA using THP-1 cell lysates, wild-type SAMHD1; assay type: binding, Human
T4 construct: lysate from THP-1 cells expressing endogenous wild-type SAMHD1; endogenous in cells; host or cells: THP-1

[8] = system: recombinant MTH1, dCTPase, dUTPase, ITPase, NUDT5, NUDT12, NUDT15 and NUDT22; test: Compound selectivity, enzyme-coupled MG assays against panel of nucleoside pyro-/tri-phosphatases; assay type: biochemical, human; settings: assayed up to 100 μM
recombinant SAMHD1 [9] = target: T2, recombinant SAMHD1; test: Dynamic light scattering (DLS), SAMHD1 particle size; settings: 1 mM compound, 1 mM GTP
SAMHD1^Y146S/Y154S = system: T5, SAMHD1^Y146S/Y154S; test: CETSA using lysates of SAMHD1−/− THP-1 cells with rescue expression of dimerization-defective variant; assay type: binding, Human; settings: versus DMSO, full melt curves, 100 μM
T5 construct: expressed in transfected cells; host or cells: SAMHD1-/- THP-1 cell clone

recombinant SAMHD1 [10] = target: T2, recombinant SAMHD1; test: In vitro chemical crosslinking (glutaraldehyde), SAMHD1 multimers; settings: 1.875 mM glutaraldehyde, GTP 0-5 mM
[11] = substrate Cl-F-ara-ATP 50 μM with GTP 12.5 μM as activator, read-out: IC50 (μM) Cl-F-ara-ATP
[12] = substrate ara-CTP 200 μM with dGTPαS 3.125 μM as activator, read-out: IC50 (μM) araCTP
[13] = substrate dGTP 25 μM, read-out: IC50 (μM) dGTP

T2 sequence (Q9Y3Z3 whole entry): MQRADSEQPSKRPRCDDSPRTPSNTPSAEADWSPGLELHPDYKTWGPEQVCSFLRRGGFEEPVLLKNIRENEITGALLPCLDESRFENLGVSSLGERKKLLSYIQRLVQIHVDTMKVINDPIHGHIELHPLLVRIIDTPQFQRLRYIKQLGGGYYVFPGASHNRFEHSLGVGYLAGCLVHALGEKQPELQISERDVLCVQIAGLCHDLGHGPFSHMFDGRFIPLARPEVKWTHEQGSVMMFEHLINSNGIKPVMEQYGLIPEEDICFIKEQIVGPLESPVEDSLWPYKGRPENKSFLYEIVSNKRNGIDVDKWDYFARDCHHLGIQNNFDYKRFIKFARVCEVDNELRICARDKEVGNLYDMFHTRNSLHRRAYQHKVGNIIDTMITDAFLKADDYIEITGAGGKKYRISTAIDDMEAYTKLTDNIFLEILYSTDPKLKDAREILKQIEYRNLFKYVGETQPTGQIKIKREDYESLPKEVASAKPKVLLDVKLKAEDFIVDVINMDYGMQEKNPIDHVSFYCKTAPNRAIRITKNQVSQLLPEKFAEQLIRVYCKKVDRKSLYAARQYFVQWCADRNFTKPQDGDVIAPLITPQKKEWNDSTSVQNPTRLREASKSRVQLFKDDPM

| Structure (SMILES) | IC50 (recombinant SAMHD1 [3]; [11]) [µM] | IC50 (recombinant SAMHD1 [3]; [12]) [µM] | IC50 (recombinant SAMHD1 [3]; [13]) [µM] | Inhibition of SAMHD1 activity against B4NPP (in words) (recombinant SAMHD1 [4]; Mn2+) | Selectivity for SAMHD1 versus panel of nucleotide phosphatases [8] | Effect on reaction kinetics / Hill coefficient (Hn) (recombinant SAMHD1 [2]) | Effect on SAMHD1 thermal stability / Tm1 (recombinant SAMHD1 [5]) | Effect on GTP-induced SAMHD1 dimerization (Tm1 transition) (recombinant SAMHD1 [5]) | SAMHD1 stability to pronase treatment [6] | other results |
| --- | --- | --- | --- | --- | --- | --- | --- | --- | --- | --- |
| Cc1cn([C@H]2C[C@H](O)[C@@H](CO)O2)c(=O)[nH]c1=O [thymidine, Thymidine] | – | – | – | – | – | – | – | – | – | SAMHD1 stabilization against heat, intact cells [1]: substantially stabilized SAMHD1 |
| Nc1nc2c(ncn2[C@H]2C[C@H](O)[C@@H](COP(=O)(O)OP(=O)(O)OP(=O)(O)O)O2)c(=O)[nH]1 [dGTP, reference compound] | – | – | – | – | – | – | – | – | substantially stabilized SAMHD1 | SAMHD1 stabilization against heat, cell lysate ([7]; 100 μM inhibitors or 5 mM dGTP, isothermal at 45°C for inhibitors): substantially stabilized SAMHD1 |
| Nc1nc2c(ncn2[C@H]2C[C@H](O)[C@@H](COP(O)(=S)OP(=O)(O)OP(=O)(O)O)O2)c(=O)[nH]1 (stereo partly drawn) [dGTPαS, reference compound] | – | – | – | – | – | – | – | – | – | Tm3 (recombinant SAMHD1 [5]; SAMHD1 melting temperature with dGTPαS up to 1 mM): ~70 °C |

Now from value to compound, other results behind:

| IC50 (recombinant SAMHD1 [3]; [11]) [µM] | IC50 (recombinant SAMHD1 [3]; [12]) [µM] | IC50 (recombinant SAMHD1 [3]; [13]) [µM] | Inhibition of SAMHD1 activity against B4NPP (in words) (recombinant SAMHD1 [4]; Mn2+) | Selectivity for SAMHD1 versus panel of nucleotide phosphatases [8] | Structure (SMILES) | Effect on reaction kinetics / Hill coefficient (Hn) (recombinant SAMHD1 [2]) | Effect on SAMHD1 thermal stability / Tm1 (recombinant SAMHD1 [5]) | Effect on GTP-induced SAMHD1 dimerization (Tm1 transition) (recombinant SAMHD1 [5]) | SAMHD1 stability to pronase treatment [6] | other results |
| --- | --- | --- | --- | --- | --- | --- | --- | --- | --- | --- |
| > 100 | > 100 | > 100 | minimal inhibition | – | Nc1ccccc1-c1cn2ccnc2c(NCCc2ccccn2)n1 [TH7126, 6-(2-aminophenyl)-N-(2-(pyridin-2-yl)ethyl)imidazo[1,2-a]pyrazin-8-amine] | did not alter the reaction kinetics | did not alter SAMHD1 thermal stability | did not disrupt SAMHD1 dimerization | – | Inhibition of SAMHD1 (in words) (recombinant SAMHD1 [3]; dGTP, ara-CTP and Cl-F-ara-ATP substrates): Neg. control; also recorded: minimal inhibition |
| 4 | 4.5 | 4.9 | retained their inhibitory activities | selectively inhibited SAMHD1 | COc1ccccc1-c1cn2ccnc2c(NCCc2ccccn2)n1 [TH7127, 6-(2-methoxyphenyl)-N-(2-(pyridin-2-yl)ethyl)imidazo[1,2-a]pyrazin-8-amine] | significantly increased hill coefficients | small concentration-dependent reduction in Tm1 | the allosteric activator was not able to fully remove the Tm1 transition | Neither TH6342 nor TH7127 in cell lysates altered SAMHD1 stability to pronase treatment | pKi (recombinant SAMHD1 [4]; B4NPP substrate, Mn2+, global fit, mixed inhibition model): 4.70; Mode of inhibition (recombinant SAMHD1 [4]; B4NPP substrate, global fitting): mixed mode of inhibition; alpha (α) (recombinant SAMHD1 [4]; B4NPP substrate, global fit, mixed inhibition model): 0.36 |
| 2.6 | 2.8 | 4.5 | retained their inhibitory activities | selectively inhibited SAMHD1 | c1ccc(CCNc2nc(-c3cccs3)cn3ccnc23)nc1 [TH7528, N-(2-(pyridin-2-yl)ethyl)-6-(thiophen-2-yl)imidazo[1,2-a]pyrazin-8-amine] | significantly increased hill coefficients | small concentration-dependent reduction in Tm1 | – | – | – |
| 5.8 | 11 | 9.1 | retained their inhibitory activities | selectively inhibited SAMHD1 | Clc1ccccc1-c1cn2ccnc2c(NCCc2ccccn2)n1 [TH6342, 6-(2-chlorophenyl)-N-(2-(pyridin-2-yl)ethyl)imidazo[1,2-a]pyrazin-8-amine] | significantly increased hill coefficients | small concentration-dependent reduction in Tm1 | the allosteric activator was not able to fully remove the Tm1 transition | Neither TH6342 nor TH7127 in cell lysates altered SAMHD1 stability to pronase treatment | Effect on GTP-induced SAMHD1 dimerization (DLS) (recombinant SAMHD1 [9]): deterred GTP (1 mM)-induced SAMHD1 dimerization; Increase of aggregation temperature (Tagg) (SAMHD1^Y146S/Y154S): ~1 °C; Effect on GTP-induced SAMHD1 multimerization (crosslinking) (recombinant SAMHD1 [10]): deterred GTP-induced SAMHD1 multimerization; Aggregation temperature (Tagg) ± SE (°C) ([7]; Figure 7F, SAMHD1 Tagg summary, wild-type SAMHD1 lysate, 100 μM compound, DMSO 44.8 ± 0.6): 46.1 ± 0.4 °C; Effect on thermal stability of nucleotide-bound SAMHD1 (recombinant SAMHD1 [5]; 0.5 mM compound added after GTP at 5 mM or dGTPαS at 1 mM): mildly destabilized GTP-bound, but not dGTPαS-bound, SAMHD1 species |
